We go through two substances from patent US10640547B2, “Immunotherapy against melanoma and other cancers” (IMMATICS BIOTECHNOLOGIES GMBH, priority 2016, dated 2020).

The subject of one assay is CD8+ T cells. As to the kind of experiment: In vitro immunogenicity: T-cell priming with artificial APCs loaded with peptide/MHC and anti-CD28, pMHC multimer readout. The assay is classed as cell-based, human. Particulars: Table 10B; HLA-A*02 restricted peptides; percentage of positive wells among evaluable. From the text: In order to obtain information regarding the immunogenicity of the TUMAPs of the present invention, the inventors performed investigations using an in vitro T-cell priming assay based on repeated stimulations of CD8+ T cells with artificial antigen presenting cells (aAPCs) loaded with peptide/MHC complexes and anti-CD28 antibody.
In order to perform in vitro stimulations by artificial antigen presenting cells loaded with peptide-MHC complex (pMHC) and anti-CD28 antibody, the inventors first isolated CD8+ T cells from fresh HLA-A*02 leukapheresis products via positive selection using CD8 microbeads (Miltenyi Biotec, Bergisch-Gladbach, Germany) of healthy donors obtained from the University clinics Mannheim, Germany, after informed consent.
PBMCs and isolated CD8+ lymphocytes were incubated in T-cell medium (TCM) until use consisting of RPMI-Glutamax (Invitrogen, Karlsruhe, Germany) supplemented with 10% heat inactivated human AB serum (PAN-Biotech, Aidenbach, Germany), 100 U/ml Penicillin/100 μg/ml Streptomycin (Cambrex, Cologne, Germany), 1 mM sodium pyruvate (CC Pro, Oberdorla, Germany), 20 μg/ml Gentamycin (Cambrex). 2.5 ng/ml IL-7 (PromoCell, Heidelberg, Germany) and 10 U/ml IL-2 (Novartis Pharma, Nürnberg, Germany) were also added to the TCM at this step.
Generation of pMHC/anti-CD28 coated beads, T-cell stimulations and readout was performed in a highly defined in vitro system using four different pMHC molecules per stimulation condition and 8 different pMHC molecules per readout condition.
The purified co-stimulatory mouse IgG2a anti human CD28 Ab 9.3 (Jung et al., 1987) was chemically biotinylated using Sulfo-N-hydroxysuccinimidobiotin as recommended by the manufacturer (Perbio, Bonn, Germany). Beads used were 5.6 μm diameter streptavidin coated polystyrene particles (Bangs Laboratories, Illinois, USA).
800.000 beads/200 μl were coated in 96-well plates in the presence of 4×12.5 ng different biotin-pMHC, washed and 600 ng biotin anti-CD28 were added subsequently in a volume of 200 μl. Stimulations were initiated in 96-well plates by co-incubating 1×10^6 CD8+ T cells with 2×10^5 washed coated beads in 200 μl TCM supplemented with 5 ng/ml IL-12 (PromoCell) for 3 days at 37° C. Half of the medium was then exchanged by fresh TCM supplemented with 80 U/ml IL-2 and incubating was continued for 4 days at 37° C. This stimulation cycle was performed for a total of three times. For the pMHC multimer readout using 8 different pMHC molecules per condition, a two-dimensional combinatorial coding approach was used as previously described (Andersen et al., 2012) with minor modifications encompassing coupling to 5 different fluorochromes. Finally, multimeric analyses were performed by staining the cells with Live/dead near IR dye (Invitrogen, Karlsruhe, Germany), CD8-FITC antibody clone SK1 (BD, Heidelberg, Germany) and fluorescent pMHC multimers. For analysis, a BD LSRII SORP cytometer equipped with appropriate lasers and filters was used. Peptide specific cells were calculated as percentage of total CD8+ cells. Evaluation of multimeric analysis was done using the FlowJo software (Tree Star, Oregon, USA). In vitro priming of specific multimer+CD8+ lymphocytes was detected by comparing to negative control stimulations.

A further assay has as its target HLA-A*02:01 (Homo sapiens, UniProt P04439, D140Y/D185E/D98H/E176V/E277Q/G131W/G231S/I119V/I121R/I166T/I218V/L300P/L318F/N151K/N90K/P208A/P217A/Q86G/Q94H/R138H/R169H/T345S). As to the kind of experiment: MHC binding assay (UV-ligand exchange, β2m ELISA). The following applies: MHC class I binding score; binding to HLA-A*02:01 ranged by peptide exchange yield (UV-ligand exchange, β2m ELISA). A digest of the protocol: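 Peptide–MHC complexes formed by UV-ligand exchange, cleaving a UV-sensitive peptide so the test peptide can bind. Exchange yield measured by ELISA: complexes captured on streptavidin-coated wells, diluted 100-fold, detected with HRP anti-β2m (1 h, 37 °C) and TMB at 450 nm, against refolded HLA-A*02:01/MLA-001 standards (15-500 ng/ml).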

With “213 (LLDPTNVFI; listed as Homo sapiens) [compound 213]”, the “Wells positive [%]” value in the assay on CD8+ T cells is “++ (20%-49% = ++)”. Also, the Peptide exchange result in the assay with HLA-A*02:01 was “++++ (>75% = ++++)”.

Regarding “232 (KILPDLNTV; listed as Homo sapiens) [compound 232]”, in the assay with CD8+ T cells, the “Wells positive [%]” value was “+ (<20% = +)”. Besides, the Peptide exchange entry with HLA-A*02:01 is “++++ (>75% = ++++)”.
